Measurements published in patent US6713436B1, “1-cycloalkylpyrazolyl-benzoyl derivatives” (BASF Aktiengesellschaft, priority 1999, dated 2004).

Experiments:
[1] = system: Brachiaria plantaginea; experiment: greenhouse post-emergence herbicidal test; format: in vivo; conditions: Brachiaria plantaginea (alexander grass), application rates of 0.5 or 0.25 kg/ha
Text: (§1) The seeds of the test plants were sown separately for each species. For the post-emergence treatment, the test plants were first grown to a height of 3 to 15 cm, depending on the plant habit, and only then treated with the active compounds which had been suspended or emulsified in water. The test plants were for this purpose either sown directly and grown in the same containers, or they were first grown separately as seedlings and transplanted into the test containers a few days prior to treatment. The application rate for the post-emergence treatment was 0.5 or 0.25 kg of a.s. (active substance)/ha. Depending on the species, the plants were kept at 10-25° C. or 20-35° C. The test period extended over 2 to 4 weeks. During this time, the plants were tended, and their response to the individual treatments was evaluated. The evaluation was carried out using a scale from 0 to 100. 100 means no emergence of the plants, or complete destruction of at least the aerial parts and 0 means no damage, or normal course of growth. The plants used in the greenhouse experiments were of the following species: [table]

[2] = system: Chenopodium album; experiment: greenhouse post-emergence herbicidal test; format: in vivo; conditions: Chenopodium album (lamb's-quarters), application rates of 0.5 or 0.25 kg/ha
Text: as §1

[3] = system: Echinochloa crus-galli; experiment: greenhouse post-emergence herbicidal test; format: in vivo; conditions: Echinochloa crus-galli (barnyard grass), application rates of 0.5 or 0.25 kg/ha
Text: as §1

[4] = system: Polygonum persicaria; experiment: greenhouse post-emergence herbicidal test; format: in vivo; conditions: Polygonum persicaria (lady's-thumb), application rates of 0.5 or 0.25 kg/ha
Text: as §1

melting point: 135 to 140 °C
SMILES: Cc1c(C(=O)c2cnn(C3CCCC3)c2O)ccc(S(C)(=O)=O)c1C1=NOCC1 [compound 4.6, 4-[2-Methyl-3-(4,5-dihydroisoxazol-3-yl)-4-methylsulfonylbenzoyl]-1-cyclopentyl-5-hydroxy-1H-pyrazole]
post-emergence action [1]: very good | post-emergence action [2]: very good | post-emergence action [3]: very good | post-emergence action [4]: very good
